From patent US11142554B2 (MASSACHUSETTS INSTITUTE OF TECHNOLOGY, priority 2015, dated 2021)
Residues, ends and D or L forms follow the SMILES beside them.

Key:
[1] = target: KSBcl-2; assay: receptor | KSBcl-2
[2] = target: Bcl-xL (Homo sapiens, UniProt Q07817); assay: receptor | Bcl-xL
[3] = target: Bcl-w (Homo sapiens, UniProt Q92843); assay: receptor | Bcl-w
[4] = target: Bcl-2 (Homo sapiens, UniProt P10415); assay: receptor | Bcl-2
[5] = target: Bfl-1 (Homo sapiens, UniProt Q16548); assay: receptor | Bfl-1
Sequence of Bfl-1 (Q16548 whole entry, looked up): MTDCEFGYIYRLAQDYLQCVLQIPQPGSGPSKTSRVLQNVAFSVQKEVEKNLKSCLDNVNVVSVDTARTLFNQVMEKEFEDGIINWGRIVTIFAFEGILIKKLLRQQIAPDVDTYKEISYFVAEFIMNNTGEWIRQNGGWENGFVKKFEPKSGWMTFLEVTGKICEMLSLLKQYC

Sequence of Bcl-w (Q92843 2-193 limits assumed): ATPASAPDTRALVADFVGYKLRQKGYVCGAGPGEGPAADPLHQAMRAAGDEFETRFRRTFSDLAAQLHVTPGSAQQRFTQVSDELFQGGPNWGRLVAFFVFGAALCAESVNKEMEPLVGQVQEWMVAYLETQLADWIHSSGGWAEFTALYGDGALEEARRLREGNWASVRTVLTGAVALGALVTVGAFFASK
Sequence of Bcl-2 (P10415 whole entry, looked up): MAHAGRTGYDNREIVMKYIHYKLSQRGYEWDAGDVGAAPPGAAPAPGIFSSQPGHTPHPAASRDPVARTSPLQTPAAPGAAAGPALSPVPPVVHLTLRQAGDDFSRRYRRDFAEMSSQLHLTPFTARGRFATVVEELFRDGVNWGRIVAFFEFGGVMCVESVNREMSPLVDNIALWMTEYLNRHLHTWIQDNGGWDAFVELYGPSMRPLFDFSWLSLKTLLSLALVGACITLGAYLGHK
Sequence of Bcl-xL (Q07817 whole entry, looked up): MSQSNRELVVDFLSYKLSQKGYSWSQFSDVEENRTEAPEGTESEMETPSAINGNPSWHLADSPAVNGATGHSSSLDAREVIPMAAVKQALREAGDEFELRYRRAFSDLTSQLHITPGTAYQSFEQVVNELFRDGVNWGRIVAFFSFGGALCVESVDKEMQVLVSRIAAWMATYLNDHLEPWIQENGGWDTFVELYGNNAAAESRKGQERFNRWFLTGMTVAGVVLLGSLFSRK

## CC[C@H](C)[C@H](NC(=O)[C@H](CCC(=O)O)NC(=O)[C@H](CC(=O)O)NC(=O)CNC(=O)[C@H](CC(C)C)NC(=O)[C@H](CCCNC(=N)N)NC(=O)[C@H](CCCNC(=N)N)NC(=O)[C@H](CC(C)C)NC(=O)CNC(=O)[C@H](CCC(N)=O)NC(=O)CNC(=O)[C@H](CCSC)NC(=O)[C@H](Cc1c[nH]c2ccccc12)NC(=O)[C@@H](NC(=O)[C@H](CCC(=O)O)NC(=O)[C@@H]1CCCN1C(=O)[C@@H](N)CCCNC(=N)N)[C@@H](C)CC)C(=O)N[C@@H](CC(N)=O)C(=O)N[C@@H](C)C(=O)N[C@@H](Cc1ccc(O)cc1)C(=O)N[C@@H](Cc1ccc(O)cc1)C(=O)N[C@@H](C)C(=O)N[C@@H](CCCNC(=N)N)C(N)=O [A12] (H-RPEIWMGQGLRRLGDEINAYYAR-NH2; N-terminus and C-terminus assumed)
[1]
  Kd: 4 ± 2.6 nM

## CC[C@H](C)[C@H](NC(=O)[C@H](CCC(=O)O)NC(=O)[C@H](CC(=O)O)NC(=O)CNC(=O)[C@H](CC(C)C)NC(=O)[C@H](CCCNC(=N)N)NC(=O)[C@H](CCC(N)=O)NC(=O)[C@H](CC(C)C)NC(=O)[C@H](CO)NC(=O)[C@H](CCC(N)=O)NC(=O)CNC(=O)[C@H](CC(C)C)NC(=O)[C@H](Cc1c[nH]c2ccccc12)NC(=O)[C@@H](NC(=O)[C@H](CCC(=O)O)NC(=O)[C@@H]1CCCN1C(=O)[C@@H](N)CCCNC(=N)N)[C@@H](C)CC)C(=O)N[C@@H](CC(N)=O)C(=O)N[C@@H](C)C(=O)N[C@@H](Cc1ccc(O)cc1)C(=O)N[C@@H](Cc1ccc(O)cc1)C(=O)N[C@@H](C)C(=O)N[C@@H](CCCNC(=N)N)C(N)=O [B3] (H-RPEIWLGQSLQRLGDEINAYYAR-NH2; N-terminus and C-terminus assumed)
[1]
  Kd: 1.43 ± 1.39 nM

## CC[C@H](C)[C@H](NC(=O)[C@H](CCCNC(=N)N)NC(=O)[C@H](CCCNC(=N)N)NC(=O)[C@H](CC(C)C)NC(=O)[C@H](CCC(=O)O)NC(=O)[C@H](CCC(N)=O)NC(=O)[C@@H](NC(=O)[C@@H](NC(=O)[C@H](Cc1c[nH]c2ccccc12)NC(=O)[C@@H](NC(=O)[C@H](CCC(=O)O)NC(=O)[C@@H]1CCCN1C(=O)[C@@H](N)CCCNC(=N)N)[C@@H](C)CC)[C@@H](C)CC)[C@@H](C)O)C(=O)NCC(=O)N[C@@H](CC(=O)O)C(=O)N[C@@H](CCC(=O)O)C(=O)N[C@@H](Cc1ccccc1)C(=O)N[C@@H](CC(N)=O)C(=O)N[C@@H](C)C(=O)N[C@@H](Cc1ccc(O)cc1)C(=O)N[C@@H](Cc1ccc(O)cc1)C(=O)N[C@@H](C)C(=O)N[C@@H](CCCNC(=N)N)C(N)=O [Bim_A2eT]
[2]
  Kd: 17 ± 4.8 nM
[3]
  Kd: 39 ± 9.4 nM
[4]
  Kd: 43 ± 12 nM
[5]
  Kd: 31 ± 6.8 nM

## CC[C@H](C)[C@H](NC(=O)[C@H](CCCNC(=N)N)NC(=O)[C@H](CCCNC(=N)N)NC(=O)[C@H](CC(C)C)NC(=O)[C@H](CCC(=O)O)NC(=O)[C@H](CCC(N)=O)NC(=O)[C@@H](NC(=O)[C@H](CCSC)NC(=O)[C@H](Cc1c[nH]c2ccccc12)NC(=O)[C@@H](NC(=O)[C@H](CCC(=O)O)NC(=O)[C@@H]1CCCN1C(=O)[C@@H](N)CCCNC(=N)N)[C@@H](C)CC)[C@@H](C)O)C(=O)NCC(=O)N[C@@H](CC(=O)O)C(=O)N[C@@H](CCC(=O)O)C(=O)N[C@@H](Cc1ccccc1)C(=O)N[C@@H](CC(N)=O)C(=O)N[C@@H](C)C(=O)N[C@@H](Cc1ccc(O)cc1)C(=O)N[C@@H](Cc1ccc(O)cc1)C(=O)N[C@@H](C)C(=O)N[C@@H](CCCNC(=N)N)C(N)=O [Bim_A2eT_I2dM]
[2]
  Kd: 83 ± 53 nM
[3]
  Kd: 260 ± 52 nM
[4]
  Kd: 210 ± 71 nM
[5]
  Kd: 150 ± 69 nM

## CC[C@H](C)[C@H](NC(=O)[C@H](CCC(=O)O)NC(=O)[C@@H]1CCCN1C(=O)[C@@H](N)CCCNC(=N)N)C(=O)N[C@@H](Cc1c[nH]c2ccccc12)C(=O)N[C@H](C(=O)N[C@H](C(=O)N[C@@H](CCC(N)=O)C(=O)N[C@@H](CCC(=O)O)C(=O)N[C@@H](CC(C)C)C(=O)N[C@@H](CCCNC(=N)N)C(=O)N[C@@H](CCCNC(=N)N)C(=O)N[C@@H](CC(C)C)C(=O)NCC(=O)N[C@@H](CC(=O)O)C(=O)N[C@@H](CCC(=O)O)C(=O)N[C@@H](Cc1ccccc1)C(=O)N[C@@H](CC(N)=O)C(=O)N[C@@H](C)C(=O)N[C@@H](Cc1ccc(O)cc1)C(=O)N[C@@H](Cc1ccc(O)cc1)C(=O)N[C@@H](C)C(=O)N[C@@H](CCCNC(=N)N)C(N)=O)[C@@H](C)O)[C@@H](C)CC [Bim_A2eT_I3dL]
[2]
  Kd: 7.6 ± 3.8 nM
[3]
  Kd: 12 ± 2.6 nM
[4]
  Kd: 37 ± 14 nM
[5]
  Kd: 120 ± 27 nM

## CC[C@H](C)[C@H](NC(=O)[C@H](CCC(=O)O)NC(=O)[C@H](CC(=O)O)NC(=O)CNC(=O)[C@H](CC(C)C)NC(=O)[C@H](CCCNC(=N)N)NC(=O)[C@H](CCC(N)=O)NC(=O)[C@H](CC(C)C)NC(=O)[C@H](Cc1c[nH]cn1)NC(=O)[C@H](CCC(N)=O)NC(=O)[C@@H](NC(=O)[C@H](CC(C)C)NC(=O)[C@H](Cc1c[nH]c2ccccc12)NC(=O)[C@@H](NC(=O)[C@H](CCC(=O)O)NC(=O)[C@@H]1CCCN1C(=O)[C@@H](N)CCCNC(=N)N)[C@@H](C)CC)[C@@H](C)O)C(=O)N[C@@H](CC(N)=O)C(=O)N[C@@H](C)C(=O)N[C@@H](Cc1ccc(O)cc1)C(=O)N[C@@H](Cc1ccc(O)cc1)C(=O)N[C@@H](C)C(=O)N[C@@H](CCCNC(=N)N)C(N)=O [MS3]
[3]
  Kd: 340 ± 69 nM
[5]
  Kd: 790 ± 140 nM

## RPEIWLTQSLQRLGDEINAYYAR [MS2]
[1]
  Kd: < 1 nM

## RPEIWMTQGLRRLGDEINAYYAR [MS1]
[1]
  Kd: 2.9 ± 0.68 nM
